Two compounds from PMC4585840 (Scientific Reports, 2015) can be followed below.

Structures are written as SMILES.

The target of series [1] is T1, RCasp6 (Homo sapiens, UniProt P55212).
T1 construct: The zymogen is cleaved at three distinct sites to remove the prodomain and linker regions in order to obtain an active enzyme; His tag (C); made in house; host or cells: E. coli BL21 (DE3)pLysS
T1 sequence (P55212 24-179 limits assumed): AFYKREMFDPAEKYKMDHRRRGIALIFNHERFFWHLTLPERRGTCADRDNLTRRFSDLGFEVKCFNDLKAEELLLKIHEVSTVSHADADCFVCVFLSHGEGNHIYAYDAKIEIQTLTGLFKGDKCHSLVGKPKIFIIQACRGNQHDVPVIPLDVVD
T1 sequence (P55212 194-293 limits assumed): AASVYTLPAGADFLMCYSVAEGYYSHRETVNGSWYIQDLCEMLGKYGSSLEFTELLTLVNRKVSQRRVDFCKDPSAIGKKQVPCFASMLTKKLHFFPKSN
The experiment in a line: in vitro fluorogenic Casp6 activity assay (Ac-VEID-AFC). In kind it is biochemical. The following applies: 10 μM DTT; Fig. 1c.

Series [2] addresses T1, RCasp6. The experiment in a line: in vitro tubulin cleavage assay with RCasp6. The following applies: 20 nM RCasp6, 10 μM DTT, 10 hours, western blot densitometry; read-out: IC50, cleavage of tubulin by RCasp6 (Tub∆Casp6 relative to total tubulin). In kind it is biochemical. The procedure:
Phenothiazines were mixed with 20 nM RCasp6 or RCasp3, 10 μM DTT, and 7.5 nM BSA in SB and 36 μg HCT116 protein extracts added before incubation at 37 °C for 10 hours, western blotting, and densitometry for tubulin-cleaved by Casp6 (Tub∆Casp6) and total tubulin as described in the western blot section. The IC50 was determined by a non-linear regression fit for log inhibitor vs caspase activity with a Hill slope of −1 using GraphPad Prism 5.0.
(§1) The 10630 (1:10,000) and GN60622 (1:10,000) neoepitope antibodies against the p20 subunit of active Casp6[16] and Tub∆Casp6[23], respectively, were generated in our laboratory. The β-actin clone AC-15 (1:5000, Sigma-Aldrich), Casp6 p10 clone B93-4 (1:250, BD Canada, Mississauga, ON, CA), Casp3, and full-length α-tubulin (1:1000, Cell Signaling Technology Inc., Danvers, MA, USA) antibodies were diluted in 5% non-fat dry milk in Tris-buffered saline containing 0.1% Tween-20 (Sigma-Aldrich). […] Secondary anti-mouse conjugated to alkaline phosphatase (Jackson Immunoresearch Laboratories Inc., West Grove, PA) was developed with nitro-blue tetrazolium (ThermoSci) and 5-bromo-4-chloro-3′-indolyphosphate (ThermoSci).
(In general: A western blot detects proteins with antibodies after separation by electrophoresis.)

The target in series [3] is T1, RCasp6. The experiment in a line: inhibitor kinetic studies (Michaelis-Menten / Lineweaver-Burk) on RCasp6. In kind it is biochemical. Conditions: for Ki: competitive inhibition model, nonlinear regression, Ac-VEID-AFC substrate, 10 nM RCasp6.
Series [4] relates to HCT116 cells. The experiment in a line: cell viability (microscopy and MTT) in HCT116 cells. Type of series: cell-based, human. The following applies: 2 hours; for concentration at which cells retained morphology and confluence comparable to PBS-treated controls: HCT116, phase contrast microscopy. The procedure:
(§2) HCT116 cells, plated at a density of 1 × 10^5 cells/well and human neurons, plated at a density of 6 × 10^6 cells/well on poly-L-lysine were treated with PBS or phenothiazines for 2 hours. The media was replaced before acquiring images with the Nikon Eclipse Ti microscope and the NIS-Elements (Version 3.10) software. MTT assays: Cells were plated in 96-well plates at 1 × 10^4 or 1 × 10^5 cells per well for 24 hours before treatments with phenothiazines or PBS. After 2 hours, fresh media containing […] MTT (3-(4,5-dimethylthiazol-2-yl)-2,5-diphenyltetrazolium bromide) (Sigma-Aldrich) was added and the cells were incubated for 4 hours at 37 °C in 5% CO2. The media was removed, formazan crystals were dissolved in DMSO, and the absorbance was measured at 560 nm and 670 nm using the BioTek Synergy H4 plate reader.

In series [5] the test system is human primary neurons. The experiment in a line: cell viability (microscopy) in human primary neurons. Type of series: cell-based. Conditions: phase contrast microscopy, 2 hours. The protocol:
as §2

The target in series [6] is T2, catalytic Cys163 of Casp6 (Homo sapiens, UniProt P55212).
T2 construct: The zymogen is cleaved at three distinct sites to remove the prodomain and linker regions in order to obtain an active enzyme; His tag (C); made in house; host or cells: E. coli BL21 (DE3)pLysS
T2 sequence (P55212 24-179 limits assumed): T1 sequence (P55212 24-179 limits assumed)
T2 sequence (P55212 194-293 limits assumed): T1 sequence (P55212 194-293 limits assumed)
The experiment in a line: LC/MS/MS analysis of Casp6 Cys163 oxidation. The following applies: RCasp6 treated with 2 mM compound, 45 min, 37 °C.

Series [7] deals with T3, Casp6 (Homo sapiens, UniProt P55212).
T3 sequence (P55212 24-179 limits assumed): T1 sequence (P55212 24-179 limits assumed)
T3 sequence (P55212 194-293 limits assumed): T1 sequence (P55212 194-293 limits assumed)
The experiment in a line: Casp6 activity in serum-deprived human primary neuron cultures. Type of series: cell-based. On the set-up: endogenous in cells; host or cells: human primary neurons from fetal brain cortex. The following applies: serum-deprived neurons, 2 hrs, 100 μM methylene blue, 50 μM azure A, 10 μM azure B.

For series [8], the target named is T3, Casp6. The experiment in a line: Casp6 activity in Casp6p20p10-transfected HCT116 cells. Type of series: cell-based. Details: for active Casp6p20 subunit (p20), full length Casp6 lacking its pro-domain; Casp6p20p10 (p20p10); expressed in transfected cells; host or cells: HCT116 human colon carcinoma cells. The following applies: transfected HCT116, 2 hrs; 100 μM and 1 mM methylene blue, 50 μM azure A, 10 μM and 100 μM azure B. The procedure: (§3) Activity assays for RCasp1 (Biovision, Millpitas, CA, USA) and RCasp3 (Enzo Lifesciences) used Z-Tyr-Val-Ala-Asp-7-Amino-4-trifluoromethylcoumarin (z-YVAD-AFC: Enzo LifeSciences,), and Ac-Asp-Glu-Val-Asp-7-Amino-4-trifluoromethylcouramin (Ac-DEVD-AFC: Enzo LifeSciences), respectively. To confirm that these substrates report caspase activity and not proteasomal caspase-like enzyme activity, 1 μM pan-caspase inhibitor, Q-VD-OPh (Sigma-Aldrich) or 0.1 μM proteasome inhibitor, bortezomib (Calbiochem, MA, USA) were tested on 20 nM RCasp3 or 40–60 μg of mouse liver protein extracts.
Human colon carcinoma (HCT116) cells, cultured as recommended (ATCC: Manassas, VA, USA), were transfected with 1 μg pCep4βCasp6p20p10 and 8 μg polyethyleneimine (Polysciences Inc., Warrington, PA, USA), and grown 24 hrs before treatment with PBS and phenothiazines for 2 hours. Human primary neurons were cultured from fetal brain cortical areas obtained under ethical guidelines and approved by the McGill University’s institutional review board as previously described. Human primary neurons plated in poly-L-lysine -coated 6-well plates at a density of 3 × 10^6 cells/mL were serum-deprived for 2 hours in the presence of phenothiazines or an equivalent volume of PBS. Proteins were harvested in cell lysis buffer (CLB; 50mM HEPES, 0.1% CHAPS, 0.1mM EDTA).
as §1

In series [9] the target is T4, RCasp1 (Homo sapiens, UniProt P29466).
T4 construct: purchased Biovision
T4 sequence (P29466 120-404): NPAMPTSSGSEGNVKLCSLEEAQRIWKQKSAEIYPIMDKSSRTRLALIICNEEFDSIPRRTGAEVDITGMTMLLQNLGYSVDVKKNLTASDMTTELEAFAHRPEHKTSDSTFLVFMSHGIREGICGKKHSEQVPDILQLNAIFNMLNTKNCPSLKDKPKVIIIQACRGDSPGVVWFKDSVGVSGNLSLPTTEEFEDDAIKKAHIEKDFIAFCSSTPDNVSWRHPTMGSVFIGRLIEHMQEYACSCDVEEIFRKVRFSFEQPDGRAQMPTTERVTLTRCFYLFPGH
The experiment in a line: in vitro fluorogenic Casp1 activity assay (z-YVAD-AFC). In kind it is biochemical. The following applies: Fig. 1g. The protocol:
as §3

The target in series [10] is T5, RCasp3 (Homo sapiens, UniProt P42574).
T5 construct: Active Casp6 and Casp3 represented >99% of the purified enzyme; purchased Enzo Lifesciences
T5 sequence (P42574 29-175 limits assumed): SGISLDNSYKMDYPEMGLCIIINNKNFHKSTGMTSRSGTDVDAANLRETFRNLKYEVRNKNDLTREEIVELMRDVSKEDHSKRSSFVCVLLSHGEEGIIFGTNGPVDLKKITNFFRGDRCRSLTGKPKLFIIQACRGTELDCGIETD
T5 sequence (P42574 176-277 limits assumed): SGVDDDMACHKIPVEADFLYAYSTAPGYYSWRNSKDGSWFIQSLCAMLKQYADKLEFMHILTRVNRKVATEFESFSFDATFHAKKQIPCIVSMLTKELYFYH
The experiment in a line: in vitro tubulin cleavage assay with RCasp3. The following applies: 20 nM RCasp3, 10 μM DTT, 10 hours, western blot densitometry; read-out: IC50 on RCasp3-cleaved tubulin. Type of series: biochemical.

As a reminder, the IC50 is the point on the concentration scale where inhibition reaches its midpoint. As usually defined, the Ki is a dissociation constant, usually derived from enzyme kinetics or from competition with a known ligand. For `CNc1ccc2nc3ccc(N(C)C)cc3[s+]c2c1` [azure B, dimethyl-[7-(methylamino)phenothiazin-3-ylidene]azanium;chloride], in series [1], the “concentration at which reduction in Casp6 activity was observed” value came out at 100 pM and the “inhibition of Casp6 activity” value is given as “inhibited Casp6 activity in a dose dependent manner”. The 50% inhibitory concentration (IC50) in series [2] is 34.4 µM. Besides, the mode of inhibition entry in series [3] (Lineweaver Burk plot, Km increasing, Vmax the same) is reported as “competitive”. The compound also came in with a Ki in series [3] of 7.89 µM. The “concentration up to which well tolerated” value in series [4] (HCT116, MTT assay) is given as “up to 100 μM”. Further, the “concentration at which cells retained morphology and confluence comparable to PBS-treated controls” value in [4] was 100 μM. In [5], the “concentration above which cell body size and axonal fragmentation increased” value is more than 10 µM. The “sequenced peptides containing oxidized Cys163” value in series [6] is given as 7.7%. Moreover, the VEIDase activity entry in series [7] is “significantly inhibited”. Moreover, in series [7] (vs PBS-treated serum-deprived neurons), the “Tub∆Casp6/Tub levels” value is recorded as “significantly decreased”. In addition, the “Casp6 activity on the Ac-VEID-AFC peptide substrate” value in series [8] was “significantly inhibited”.

As to `CN(C)c1ccc2nc3ccc(=[N+](C)C)cc-3sc2c1` [methylene blue, [7-(dimethylamino)phenothiazin-3-ylidene]-dimethylazanium;chloride], the “concentration at which reduction in Casp6 activity was observed” value in [1] was found to be 100 pM. Also, the “inhibition of RCasp1 in the fluorogenic assay” value in [9] is listed as “dose dependent inhibition”. In series [2], the 50% inhibitory concentration (IC50) was determined as 10.6 µM. The IC50 in series [10] worked out at 14.2 µM. Further, in [3], the affinity, expressed as Ki, was 50.5 µM. For the same compound, in series [4] (HCT116, MTT assay), the “concentration that decreased MTT absorbance to almost nothing (toxicity)” value was 10000 µM and the “concentration up to which MTT absorbance was similar to PBS-treated cells” value was “up to 1 mM”. The “concentration at which cells retained morphology and confluence comparable to PBS-treated controls” value in series [4] is 100 μM. In [5], the “concentration above which cell body size and axonal fragmentation increased” value is given as “above 100 μM”. Also, in series [8], the “Casp6 activity on the Ac-VEID-AFC peptide substrate” value is “significantly inhibited”.
